Laboratory results published in ChEMBL document CHEMBL4507276 (2021).

Experiments:
[1] = tested on: Mast/stem cell growth factor receptor Kit (Homo sapiens), P10721 [V559D]; conditions: Compound concentration 1000.0 nM
[2] = target: Cyclin-dependent kinase 14 (Homo sapiens) (UniProt O94921); conditions: Compound concentration 1000.0 nM
[3] = target: Mitogen-activated protein kinase kinase kinase 19 (Homo sapiens) (UniProt Q56UN5); conditions: Compound concentration 1000.0 nM
[4] = tested on: eIF-2-alpha kinase GCN2 (Homo sapiens), Q9P2K8 [S808G]; conditions: Compound concentration 1000.0 nM
[5] = target: Mitogen-activated protein kinase kinase kinase 11 (Homo sapiens) (UniProt Q16584); conditions: Compound concentration 1000.0 nM
[6] = target: Serine/threonine-protein kinase tousled-like 1 (Homo sapiens) (UniProt Q9UKI8); conditions: Compound concentration 1000.0 nM
[7] = target: Mitogen-activated protein kinase kinase kinase 9 (Homo sapiens) (UniProt P80192); conditions: Compound concentration 1000.0 nM
[8] = target: T1, cAMP-dependent protein kinase catalytic subunit PRKX (Homo sapiens) (UniProt P51817); conditions: Compound concentration 1000.0 nM
T1 sequence (whole entry): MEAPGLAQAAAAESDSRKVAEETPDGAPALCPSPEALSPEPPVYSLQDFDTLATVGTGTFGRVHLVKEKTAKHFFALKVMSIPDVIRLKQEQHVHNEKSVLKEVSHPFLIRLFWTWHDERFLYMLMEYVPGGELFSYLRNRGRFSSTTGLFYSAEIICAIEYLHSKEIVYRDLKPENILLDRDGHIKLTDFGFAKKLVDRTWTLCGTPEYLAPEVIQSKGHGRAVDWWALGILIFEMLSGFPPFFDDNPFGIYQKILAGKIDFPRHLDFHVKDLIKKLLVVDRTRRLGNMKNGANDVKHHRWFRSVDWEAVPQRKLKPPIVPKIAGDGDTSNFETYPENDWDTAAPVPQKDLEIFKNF

[9] = target: Beta-3 adrenergic receptor (Homo sapiens) (UniProt P13945); conditions: Compound concentration 10.0 uM
[10] = target: Myosin light chain kinase, smooth muscle (Homo sapiens) (UniProt Q15746); conditions: Compound concentration 1000.0 nM
[11] = target: Mitogen-activated protein kinase kinase kinase 12 (Homo sapiens) (UniProt Q12852); conditions: Compound concentration 1000.0 nM
[12] = target: Ribosomal protein S6 kinase alpha-1 (Homo sapiens) (UniProt Q15418); conditions: Compound concentration 1000.0 nM
[13] = target: Mast/stem cell growth factor receptor Kit (Homo sapiens) (UniProt P10721); conditions: Compound concentration 1000.0 nM
[14] = target: T2, Tyrosine-protein kinase ZAP-70 (Homo sapiens) (UniProt P43403); conditions: Compound concentration 1000.0 nM
T2 sequence (whole entry): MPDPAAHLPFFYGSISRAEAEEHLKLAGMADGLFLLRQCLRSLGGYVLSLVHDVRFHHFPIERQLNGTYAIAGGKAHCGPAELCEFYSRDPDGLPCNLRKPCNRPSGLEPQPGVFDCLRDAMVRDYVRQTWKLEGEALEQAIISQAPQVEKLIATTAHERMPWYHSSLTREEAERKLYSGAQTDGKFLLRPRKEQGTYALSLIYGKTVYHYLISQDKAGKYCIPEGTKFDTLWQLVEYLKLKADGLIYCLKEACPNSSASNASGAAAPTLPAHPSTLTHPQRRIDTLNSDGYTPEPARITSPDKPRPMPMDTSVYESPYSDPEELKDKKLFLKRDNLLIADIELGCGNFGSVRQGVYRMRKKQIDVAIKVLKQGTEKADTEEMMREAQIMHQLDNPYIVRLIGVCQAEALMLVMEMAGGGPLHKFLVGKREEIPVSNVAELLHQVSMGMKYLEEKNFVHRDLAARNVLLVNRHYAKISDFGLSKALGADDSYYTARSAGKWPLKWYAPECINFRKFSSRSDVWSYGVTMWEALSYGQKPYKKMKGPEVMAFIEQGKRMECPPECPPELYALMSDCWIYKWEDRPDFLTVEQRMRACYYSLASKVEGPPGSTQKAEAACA

[15] = target: Dual specificity mitogen-activated protein kinase kinase 5 (Homo sapiens) (UniProt Q13163); conditions: Compound concentration 1000.0 nM
[16] = target: Focal adhesion kinase 1 (Homo sapiens) (UniProt Q05397); conditions: Compound concentration 1000.0 nM
[17] = target: T3, Tyrosine-protein kinase ITK/TSK (Homo sapiens) (UniProt Q08881); conditions: Compound concentration 1000.0 nM
T3 sequence (whole entry): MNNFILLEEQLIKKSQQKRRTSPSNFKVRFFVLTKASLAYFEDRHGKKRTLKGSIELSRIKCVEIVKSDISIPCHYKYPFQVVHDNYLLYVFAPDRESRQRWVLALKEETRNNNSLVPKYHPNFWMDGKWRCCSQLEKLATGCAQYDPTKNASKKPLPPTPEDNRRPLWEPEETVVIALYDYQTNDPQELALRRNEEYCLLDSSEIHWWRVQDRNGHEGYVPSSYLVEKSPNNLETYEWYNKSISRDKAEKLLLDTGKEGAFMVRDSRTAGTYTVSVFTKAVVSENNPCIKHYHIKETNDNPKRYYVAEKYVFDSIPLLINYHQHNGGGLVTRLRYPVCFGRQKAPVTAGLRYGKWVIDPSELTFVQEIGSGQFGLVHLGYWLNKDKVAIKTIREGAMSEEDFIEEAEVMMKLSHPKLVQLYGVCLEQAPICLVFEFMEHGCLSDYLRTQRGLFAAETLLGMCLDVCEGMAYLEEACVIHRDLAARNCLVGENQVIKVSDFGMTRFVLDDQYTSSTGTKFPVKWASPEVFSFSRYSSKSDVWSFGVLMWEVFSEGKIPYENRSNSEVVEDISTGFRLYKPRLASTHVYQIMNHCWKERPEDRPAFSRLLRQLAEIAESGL

[18] = tested on: Tyrosine-protein kinase ABL1 (Homo sapiens), P00519 [H396P]; conditions: Compound concentration 1000.0 nM
[19] = target: Tyrosine-protein kinase ABL1 (Homo sapiens) (UniProt P00519); conditions: Compound concentration 1000.0 nM
[20] = target: Serine/threonine-protein kinase ULK2 (Homo sapiens) (UniProt Q8IYT8); conditions: Compound concentration 1000.0 nM
[21] = tested on: Receptor-type tyrosine-protein kinase FLT3 (Homo sapiens), P36888 [K663Q]; conditions: Compound concentration 1000.0 nM
[22] = target: Serine/threonine-protein kinase MRCK beta (Homo sapiens) (UniProt Q9Y5S2); conditions: Compound concentration 1000.0 nM
[23] = target: Serine/threonine-protein kinase ICK (Homo sapiens) (UniProt Q9UPZ9); conditions: Compound concentration 1000.0 nM

Chain of Mast/stem cell growth factor receptor Kit (Homo sapiens), P10721 [V559D] (P10721 whole entry V559D): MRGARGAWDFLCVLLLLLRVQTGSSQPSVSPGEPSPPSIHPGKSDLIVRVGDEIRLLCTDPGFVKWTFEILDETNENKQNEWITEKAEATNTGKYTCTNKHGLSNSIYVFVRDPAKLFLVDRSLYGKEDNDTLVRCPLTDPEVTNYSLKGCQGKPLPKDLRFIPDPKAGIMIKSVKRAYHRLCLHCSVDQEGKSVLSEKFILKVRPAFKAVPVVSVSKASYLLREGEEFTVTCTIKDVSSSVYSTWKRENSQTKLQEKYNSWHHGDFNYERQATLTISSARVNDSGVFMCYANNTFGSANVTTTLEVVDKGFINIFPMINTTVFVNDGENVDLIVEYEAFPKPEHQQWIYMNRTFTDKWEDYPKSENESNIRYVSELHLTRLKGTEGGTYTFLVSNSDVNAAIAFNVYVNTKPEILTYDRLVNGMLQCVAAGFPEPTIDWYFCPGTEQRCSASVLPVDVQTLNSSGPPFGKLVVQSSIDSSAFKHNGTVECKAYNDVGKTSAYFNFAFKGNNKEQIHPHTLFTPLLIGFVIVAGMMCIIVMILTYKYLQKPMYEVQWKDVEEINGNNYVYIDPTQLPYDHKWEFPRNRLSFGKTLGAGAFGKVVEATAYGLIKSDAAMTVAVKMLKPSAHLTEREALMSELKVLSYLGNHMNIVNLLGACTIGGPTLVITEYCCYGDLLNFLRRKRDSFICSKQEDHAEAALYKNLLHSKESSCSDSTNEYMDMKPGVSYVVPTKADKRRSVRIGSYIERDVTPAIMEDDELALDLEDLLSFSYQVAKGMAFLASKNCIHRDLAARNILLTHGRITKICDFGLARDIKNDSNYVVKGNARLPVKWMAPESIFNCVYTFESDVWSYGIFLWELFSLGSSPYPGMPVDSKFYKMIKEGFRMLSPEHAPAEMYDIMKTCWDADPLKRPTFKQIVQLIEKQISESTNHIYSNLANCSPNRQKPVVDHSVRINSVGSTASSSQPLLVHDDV
Chain of Dual specificity mitogen-activated protein kinase kinase 5 (Homo sapiens) (Q13163 whole entry): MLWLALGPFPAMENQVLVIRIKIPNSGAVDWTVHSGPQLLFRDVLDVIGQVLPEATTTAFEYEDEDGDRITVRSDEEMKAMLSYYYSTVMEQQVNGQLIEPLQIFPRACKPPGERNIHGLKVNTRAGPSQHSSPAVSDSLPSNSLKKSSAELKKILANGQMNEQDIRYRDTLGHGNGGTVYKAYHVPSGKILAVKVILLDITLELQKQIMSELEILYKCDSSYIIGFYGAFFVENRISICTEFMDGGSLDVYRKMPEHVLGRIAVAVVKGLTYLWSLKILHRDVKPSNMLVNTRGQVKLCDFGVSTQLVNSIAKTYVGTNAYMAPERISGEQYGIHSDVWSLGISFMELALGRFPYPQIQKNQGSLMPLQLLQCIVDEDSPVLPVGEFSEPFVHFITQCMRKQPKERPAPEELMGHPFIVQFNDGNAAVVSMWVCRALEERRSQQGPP
Chain of Ribosomal protein S6 kinase alpha-1 (Homo sapiens) (Q15418 whole entry): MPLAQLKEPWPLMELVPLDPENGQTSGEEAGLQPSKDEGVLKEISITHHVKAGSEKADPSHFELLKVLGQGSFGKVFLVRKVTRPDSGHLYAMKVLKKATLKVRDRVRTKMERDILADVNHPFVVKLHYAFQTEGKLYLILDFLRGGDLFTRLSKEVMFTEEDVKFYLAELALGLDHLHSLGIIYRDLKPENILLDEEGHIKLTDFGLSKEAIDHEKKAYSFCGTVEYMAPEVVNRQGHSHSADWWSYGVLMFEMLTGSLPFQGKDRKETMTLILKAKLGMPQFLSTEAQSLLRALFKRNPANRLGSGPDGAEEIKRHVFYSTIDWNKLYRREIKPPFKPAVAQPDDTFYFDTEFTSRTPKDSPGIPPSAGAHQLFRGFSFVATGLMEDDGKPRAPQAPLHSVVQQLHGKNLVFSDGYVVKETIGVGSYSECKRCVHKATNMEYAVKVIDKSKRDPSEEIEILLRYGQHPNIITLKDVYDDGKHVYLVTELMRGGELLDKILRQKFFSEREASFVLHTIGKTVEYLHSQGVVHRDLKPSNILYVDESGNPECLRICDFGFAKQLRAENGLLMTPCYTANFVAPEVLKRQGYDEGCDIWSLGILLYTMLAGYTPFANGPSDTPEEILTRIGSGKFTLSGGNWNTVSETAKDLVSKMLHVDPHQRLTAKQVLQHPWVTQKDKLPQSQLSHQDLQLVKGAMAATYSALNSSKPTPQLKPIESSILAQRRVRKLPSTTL
Chain of Mast/stem cell growth factor receptor Kit (Homo sapiens) (P10721 whole entry): as the sequence (P10721 whole entry V559D) above, with D559V counted along it
Chain of Serine/threonine-protein kinase ULK2 (Homo sapiens) (Q8IYT8 whole entry): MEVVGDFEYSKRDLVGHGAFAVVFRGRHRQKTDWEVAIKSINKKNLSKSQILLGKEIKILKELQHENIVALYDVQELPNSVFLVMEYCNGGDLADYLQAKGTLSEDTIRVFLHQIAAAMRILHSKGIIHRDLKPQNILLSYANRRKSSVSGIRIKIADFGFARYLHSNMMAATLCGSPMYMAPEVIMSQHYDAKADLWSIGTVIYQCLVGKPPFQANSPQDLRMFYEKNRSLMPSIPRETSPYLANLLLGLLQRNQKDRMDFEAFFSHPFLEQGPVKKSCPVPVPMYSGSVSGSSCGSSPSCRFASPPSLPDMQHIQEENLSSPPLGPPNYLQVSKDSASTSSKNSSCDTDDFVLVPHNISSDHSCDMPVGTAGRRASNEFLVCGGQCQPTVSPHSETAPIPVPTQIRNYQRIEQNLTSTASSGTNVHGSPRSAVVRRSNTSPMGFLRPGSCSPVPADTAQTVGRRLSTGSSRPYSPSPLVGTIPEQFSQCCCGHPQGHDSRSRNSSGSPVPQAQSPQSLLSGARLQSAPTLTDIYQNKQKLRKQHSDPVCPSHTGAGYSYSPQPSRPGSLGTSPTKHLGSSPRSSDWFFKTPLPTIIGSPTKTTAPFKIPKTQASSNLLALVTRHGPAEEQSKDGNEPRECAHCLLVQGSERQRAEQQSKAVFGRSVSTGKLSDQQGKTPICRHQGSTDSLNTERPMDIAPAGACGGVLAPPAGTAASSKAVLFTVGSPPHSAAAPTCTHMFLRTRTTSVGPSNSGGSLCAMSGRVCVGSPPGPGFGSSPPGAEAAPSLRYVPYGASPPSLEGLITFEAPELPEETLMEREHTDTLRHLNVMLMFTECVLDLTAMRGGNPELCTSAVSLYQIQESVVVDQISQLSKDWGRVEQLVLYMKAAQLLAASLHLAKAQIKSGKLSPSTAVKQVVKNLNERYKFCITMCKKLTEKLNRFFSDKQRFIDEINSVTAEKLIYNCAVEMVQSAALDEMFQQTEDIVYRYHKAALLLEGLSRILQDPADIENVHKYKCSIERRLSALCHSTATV
Chain of Focal adhesion kinase 1 (Homo sapiens) (Q05397 2-1052 limits assumed): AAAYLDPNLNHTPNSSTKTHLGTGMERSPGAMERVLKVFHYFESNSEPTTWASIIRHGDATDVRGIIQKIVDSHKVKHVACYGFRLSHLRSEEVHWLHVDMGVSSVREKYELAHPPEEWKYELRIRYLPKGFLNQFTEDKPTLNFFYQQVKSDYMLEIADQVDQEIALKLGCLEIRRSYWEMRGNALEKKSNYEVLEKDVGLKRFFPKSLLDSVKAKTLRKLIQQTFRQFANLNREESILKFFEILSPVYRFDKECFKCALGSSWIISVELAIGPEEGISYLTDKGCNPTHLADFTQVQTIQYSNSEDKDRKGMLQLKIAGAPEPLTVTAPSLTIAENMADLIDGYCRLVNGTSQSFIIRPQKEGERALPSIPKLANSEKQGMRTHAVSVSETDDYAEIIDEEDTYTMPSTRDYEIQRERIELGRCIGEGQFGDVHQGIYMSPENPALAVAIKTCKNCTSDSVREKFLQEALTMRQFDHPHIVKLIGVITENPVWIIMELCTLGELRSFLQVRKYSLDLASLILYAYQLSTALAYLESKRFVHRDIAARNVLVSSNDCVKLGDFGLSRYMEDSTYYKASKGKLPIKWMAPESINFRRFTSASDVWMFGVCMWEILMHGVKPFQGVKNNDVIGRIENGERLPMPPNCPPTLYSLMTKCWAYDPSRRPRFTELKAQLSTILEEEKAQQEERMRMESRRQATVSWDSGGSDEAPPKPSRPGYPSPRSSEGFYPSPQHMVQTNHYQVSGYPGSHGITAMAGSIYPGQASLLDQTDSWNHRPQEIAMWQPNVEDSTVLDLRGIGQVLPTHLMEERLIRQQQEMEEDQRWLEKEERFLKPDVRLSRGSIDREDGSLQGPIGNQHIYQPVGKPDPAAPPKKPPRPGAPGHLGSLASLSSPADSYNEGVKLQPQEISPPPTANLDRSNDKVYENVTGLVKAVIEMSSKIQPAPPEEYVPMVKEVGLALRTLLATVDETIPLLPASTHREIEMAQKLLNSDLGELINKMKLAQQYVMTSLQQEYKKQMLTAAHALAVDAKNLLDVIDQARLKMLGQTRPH
Chain of Cyclin-dependent kinase 14 (Homo sapiens) (O94921 whole entry): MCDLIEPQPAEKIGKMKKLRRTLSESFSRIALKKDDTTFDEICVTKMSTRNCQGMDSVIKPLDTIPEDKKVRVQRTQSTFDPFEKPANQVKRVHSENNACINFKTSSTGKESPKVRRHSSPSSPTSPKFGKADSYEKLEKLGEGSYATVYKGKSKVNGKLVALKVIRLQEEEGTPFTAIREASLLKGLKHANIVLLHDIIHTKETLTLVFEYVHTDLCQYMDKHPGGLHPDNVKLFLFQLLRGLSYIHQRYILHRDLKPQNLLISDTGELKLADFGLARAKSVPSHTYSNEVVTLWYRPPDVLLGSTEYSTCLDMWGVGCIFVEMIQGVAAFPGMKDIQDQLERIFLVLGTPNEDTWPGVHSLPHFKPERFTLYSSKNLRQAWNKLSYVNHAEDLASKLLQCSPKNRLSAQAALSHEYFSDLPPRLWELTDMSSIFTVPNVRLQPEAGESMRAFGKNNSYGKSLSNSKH

CN(C)C(=O)Cn1cc(-c2nc(C3(c4ccc(-c5cnc(N)nc5)cc4)CC3)no2)cn1 [BI 0153]
inactive: residual activity [1] 100% | residual activity [2] 100% | residual activity [3] 73% | residual activity [4] 83% | residual activity [5] 87% | residual activity [6] 100% | residual activity [7] 91% | residual activity [8] 100% | inhibition [9] 3.06% | residual activity [10] 72% | residual activity [11] 100% | residual activity [12] 100% | residual activity [13] 93% | residual activity [14] 94% | residual activity [15] 72% | residual activity [16] 100% | residual activity [17] 92% | residual activity [18] 100% | residual activity [19] 93% | residual activity [20] 78% | residual activity [21] 100% | residual activity [22] 85% | residual activity [23] 76%

CN(C)C(=O)Cn1cc(-c2nc([C@@](C)(c3ccc(-c4cnc(N)nc4)cc3)C3CC3)no2)cn1 [BI 665915]
inactive: residual activity [1] 91% | residual activity [2] 99% | residual activity [3] 61% | residual activity [4] 100% | residual activity [5] 77% | residual activity [6] 100% | residual activity [7] 100% | residual activity [8] 100% | inhibition [9] 9.54% | residual activity [10] 84% | residual activity [11] 80% | residual activity [12] 99% | residual activity [13] 87% | residual activity [14] 100% | residual activity [15] 62% | residual activity [16] 100% | residual activity [17] 99% | residual activity [18] 76% | residual activity [19] 84% | residual activity [20] 100% | residual activity [21] 94% | residual activity [22] 99% | residual activity [23] 100%
